Experimental data from the supplement of paper PMC12317010.
Counter-ions that a name gives are not always drawn.

Assay: collision cross section in nitrogen (drift tube, single-field); higher = larger gas-phase ion size
[1] = ion type: [M-H], ion source: ESI, ion mode: Negative
[2] = ion type: [M+H], ion source: ESI, ion mode: Positive
[3] = ion type: [M+Na], ion source: ESI, ion mode: Positive
[4] = ion type: [M+H], ion source: APCI, ion mode: Positive
[5] = ion type: [M+], ion source: APCI, ion mode: Positive
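Further: chemical standards at 10 µM analysed by drift tube IMS-QTOF MS in about 3.95 torr nitrogen, mean of duplicate injections differing ≤1%, mass error below 10 ppm.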

Structure (SMILES) | collision cross section in nitrogen [1] [Å²] | collision cross section in nitrogen [2] [Å²] | collision cross section in nitrogen [3] [Å²] | collision cross section in nitrogen [4] [Å²] | collision cross section in nitrogen [5] [Å²]
C[C@H](CCC(=O)O)[C@H]1CC[C@H]2[C@@H]3CC[C@@H]4C[C@H](O)CC[C@]4(C)[C@H]3CC[C@]12C [Lithocholic acid] | 203 |  |  |  | 
N#Cc1nn(-c2c(Cl)cc(C(F)(F)F)cc2Cl)c(N)c1S(=O)C(F)(F)F (stereo unspecified) [Fipronil] | 178.1 |  |  |  | 
CCCOC(=O)c1cc(O)c(O)c(O)c1 [Gallic acid n-propyl ester] | 146.5 |  |  |  | 
O=c1[nH]c2ccc(Cl)cc2o1 [6-Chloro-2,3-dihydrobenzoxazol-2-one] | 125.6 |  |  |  | 
CC(O)CN(CCN(CC(C)O)CC(C)O)CC(C)O (stereo unspecified) [1,1′,1′′,1′′′-(Ethylenedinitrilo)tetrakis(2-propanol)] | 168.6 | 166.8 | 168.6 | 166.8 | 
CC1CCc2nccnc21 (stereo unspecified) [6,7-Dihydro-5-methyl-5H-cyclopentapyrazine] |  |  |  | 127.6 | 
CC1(C)CN=C(NN=C(C=Cc2ccc(C(F)(F)F)cc2)C=Cc2ccc(C(F)(F)F)cc2)NC1 [Hydramethylnon] | 234.7 | 240.6 | 250.1 | 239.4 | 226.3
Oc1ccc2ccc3cccc4ccc1c2c34 [1-Hydroxypyrene] | 146.2 |  |  |  | 141.9
Cc1ncc(CO)c(CO)c1O [Pyridoxine] | 133.2 | 134.6 |  | 133.7 | 
CNC(=O)CSP(=O)(OC)OC [Omethoate] |  |  | 145.9 | 137.1 | 
COCCOCCOCCOCCOC [2,5,8,11,14-Pentaoxapentadecane] |  |  | 147.3 |  | 
CCCCNC1CC(C)(C)NC(C)(C)C1 [N-Butyl-2,2,6,6-tetramethylpiperidin-4-amine] |  | 154 |  | 153.3 | 
CCNc1nc(NC(C)(C)C)nc(SC)n1 [Terbutryn] |  | 159.4 |  | 159.9 | 
CC(C)Oc1cc(-n2nc(C(C)(C)C)oc2=O)c(Cl)cc1Cl [Oxadiazon] | 177.1 |  |  |  | 
CCCCCCOC(=O)CC [Hexyl propanoate] | 146.3 |  |  |  | 
NCCCN1CCN(CCCN)CC1 [1,4-Piperazinedipropanamine] |  | 150.2 |  | 150.3 | 
CNC(=O)Oc1ccc2c(c1)[C@]1(C)CCN(C)[C@@H]1N2C [Physostigmine] |  | 169.8 | 169.6 | 169.6 | 
C[C@@H]1CN(c2c(F)c(N)c3c(=O)c(C(=O)O)cn(C4CC4)c3c2F)C[C@H](C)N1 [Sparfloxacin] |  | 190.2 |  |  | 
Cc1ncc[nH]1 [2-Methylimidazole] | 112.8 |  |  |  | 
COc1ccc(CCN2CCC(Nc3nc4ccccc4n3Cc3ccc(F)cc3)CC2)cc1 [Astemizole] | 227.8 | 210.8 | 213.2 |  | 

Structure (SMILES) | collision cross section in nitrogen [1] [Å²] | collision cross section in nitrogen [2] [Å²] | collision cross section in nitrogen [3] [Å²] | collision cross section in nitrogen [4] [Å²] | collision cross section in nitrogen [5] [Å²]
S=c1[nH]c(=S)[nH]c(=S)[nH]1 [Trisodium 2,4,6-trithioxo-1,3,5-triazinane-1,3,5-triide] | 125.6 |  |  |  | 
CC(O)CN(CCCN(C)C)CCCN(C)C (stereo unspecified) [1-{Bis[3-(dimethylamino)propyl]amino}propan-2-ol] |  | 158.1 | 158.4 | 157.5 | 
CCC1(c2ccccc2)C(=O)N=C(O)NC1=O (stereo unspecified) [Phenobarbital sodium] | 150.4 |  |  |  | 
Nc1cc([N+](=O)[O-])ccc1C(=O)O [4-Nitroanthranilic acid] | 133.5 |  |  |  | 
CCN(CC)CCOC(=O)c1ccc(N)cc1 [Procaine hydrochloride] |  | 157.1 |  | 155.9 | 
CCCCC(CC)C(=O)O (stereo unspecified) [2-Ethylhexanoic acid] | 138.1 |  |  |  | 
C[C@]12CC[C@H]3C(=CCc4cc(O)ccc43)[C@@H]1CCC2=O [Equilin] | 172.2 |  |  |  | 
Cc1cc(-c2ccc(N)c(C)c2)ccc1N [3,3'-Dimethylbenzidine] |  | 166.5 |  | 166.1 | 150.8
CCCCOC(=O)[C@@H](C)Oc1ccc(Oc2ccc(C#N)cc2F)cc1 [Cyhalofop-butyl] |  |  | 191.2 |  | 
O=S(=O)(O)c1cc(O)ccc1O [Potassium 2,5-dihydroxybenzenesulfonate] | 131.2 |  |  |  | 
CC(C)(C)c1cc(-n2nc3ccccc3n2)c(O)c(C(C)(C)C)c1 [2-(2'-Hydroxy-3',5'-di-tert-butylphenyl)benzotriazole] | 192.5 |  |  |  | 186
Cc1cc(O)cc(C)c1Cl [4-Chloro-3,5-dimethylphenol] | 131.7 |  |  |  | 
C=CCC1=C(C)[C@@H](OC(=O)[C@@H]2[C@@H](C=C(C)C)C2(C)C)CC1=O [S-Bioallethrin] |  |  | 184.5 |  | 
COc1cnc(OC)n2nc(NS(=O)(=O)c3c(OCC(F)F)cccc3C(F)(F)F)nc12 [Penoxsulam] | 193.3 | 195.6 | 198.5 | 196 | 
Nc1cc2c3c(c1)C(c1ccccc1)=N[C@@H](NC(=O)c1cccnc1)C(=O)N3CC2 |  | 200.1 | 209.2 | 201.2 | 
CC(C)C[C@H]1C(=O)N2CCC[C@H]2[C@]2(O)O[C@](NC(=O)[C@@H]3C=C4c5cccc6[nH]c(Br)c(c56)C[C@H]4N(C)C3)(C(C)C)C(=O)N12 [Bromocriptine mesylate] | 251.7 | 247.4 | 248.5 | 242.9 | 
COCC(=O)N(c1c(C)cccc1C)[C@H](C)C(=O)OC [Metalaxyl-M] |  | 160 | 168.8 | 160.5 | 
COCCOCCOCCO [2-[2-(2-Methoxyethoxy)ethoxy]ethanol] |  |  | 135.6 |  | 
c1cc(OCC2CO2)ccc1Cc1ccc(OCC2CO2)cc1 (stereo unspecified) [Bis[4-(glycidyloxy)phenyl]methane] |  |  | 169 |  | 

Continued, in another order:

collision cross section in nitrogen [1] [Å²] | collision cross section in nitrogen [2] [Å²] | collision cross section in nitrogen [3] [Å²] | collision cross section in nitrogen [4] [Å²] | Structure (SMILES) | collision cross section in nitrogen [5] [Å²]
 | 189.8 | 189 |  | CCOC(=O)[C@H](C)Oc1ccc(Oc2nc3ccc(Cl)cc3o2)cc1 [Fenoxaprop-(2S)-ethyl] | 
 | 160.3 | 171.4 | 159.8 | COc1ccc(-c2coc3cc(O)ccc3c2=O)cc1 [Formononetin] | 156.9
155.5 | 154.5 | 164.9 | 154.1 | CCOC(=O)C1=NN(c2ccccc2)C(=O)C1 [Ethyl 5-oxo-1-phenyl-4,5-dihydro-1H-pyrazole-3-carboxylate] | 
 | 155.6 | 169.5 | 155.5 | CCOc1ccc(NC(=O)CC(C)O)cc1 (stereo unspecified) [3-Hydroxy-4-butyrophenetidide] | 
151.8 |  |  |  | Nc1ccccc1S(=O)(=O)c1ccccc1 [2-(Phenylsulfonyl)aniline] | 
 | 179.4 |  | 179.1 | CC(C)Nc1ccc(NC(C)C)c2c1C(=O)c1ccccc1C2=O [1,4-Bis(N-isopropylamino)anthraquinone] | 178.2
 | 143.4 | 151 | 141.8 | Cc1ccc(N(CCO)CCO)cc1 [2,2'-[(4-Methylphenyl)imino]diethanol] | 
 |  | 195.5 |  | COC(=O)C1=C(C)NC(C)=C(C(=O)OCC(C)C)C1c1ccccc1[N+](=O)[O-] (stereo unspecified) [Nisoldipine] | 
160.7 | 160.7 |  | 160.9 | O=C(Nc1ccccc1)c1cc2ccccc2cc1O [3-Hydroxy-2-naphthanilide] | 
 | 245.5 | 241.3 | 244.9 | CN(C)C(=O)C1(N2CCCCC2)CCN(CC[C@@]2(c3ccc(Cl)c(Cl)c3)CN(C(=O)c3ccccc3)CCO2)CC1 | 
154.8 |  |  |  | O=C(O)CCCc1c[nH]c2ccccc12 [Indole-3-butyric acid] | 
159.1 |  |  |  | CC(=O)CC(=O)Nc1ccc(S(=O)(=O)O)cc1 [Potassium 4-acetoacetylaminobenzenesulphonate] | 
142.5 |  | 154.9 |  | CC(=O)CC(=O)Nc1ccccc1C [N-(2-Methylphenyl)-3-oxobutanamide] | 
151.9 |  |  |  | Cc1ccc(S(=O)(=O)C(I)I)cc1 [Diiodomethyl 4-methylphenyl sulfone] | 
122.5 |  |  |  | Oc1ccc(Cl)c(O)c1 [4-Chlororesorcinol] | 
 | 143.6 |  | 143.2 | Cc1cccc(Nc2ccccc2)c1 [3-Methyl-N-phenylaniline] | 139.3
 | 126.5 |  | 126.4 | NC(=O)c1ccc(N)cc1 [4-Aminobenzamide] | 
 | 125 |  | 124.7 | N=C(N)c1ccccc1 [Benzenecarboximidamide, monohydrochloride] | 
 | 185.1 | 186.4 |  | COC(=O)[C@@H](C)Oc1ccc(Oc2ncc(C(F)(F)F)cc2Cl)cc1 [Haloxyfop-P-methyl] | 
148.7 |  |  |  | O=S(=O)(O)c1ccc2cc(O)ccc2c1 [Sodium 6-hydroxynaphthalene-2-sulfonate] | 
